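Briefly, cells in 96-well plates were exposed to five compound concentrations for 48 h, and endpoints were estimated by linear interpolation. Definition used: TGI = concentration required for complete inhibition of growth.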
Key:
Assay in all cases: NCI anticancer screen, dose series, 48 h
SW-620 colon = tested on: SW-620 colon
OVCAR-8 ovarian = tested on: OVCAR-8 ovarian
KM12 colon = tested on: KM12 colon
SF-295 CNS = tested on: SF-295 CNS
HT29 colon = tested on: HT29 colon
SF-539 CNS = tested on: SF-539 CNS
T-47D breast = tested on: T-47D breast
SN12C renal = tested on: SN12C renal
MALME-3M melanoma = tested on: MALME-3M melanoma
OVCAR-3 ovarian = tested on: OVCAR-3 ovarian
RXF 393 renal = tested on: RXF 393 renal
UACC-257 melanoma = tested on: UACC-257 melanoma
SF-268 CNS = tested on: SF-268 CNS
SK-MEL-28 melanoma = tested on: SK-MEL-28 melanoma
SNB-19 CNS = tested on: SNB-19 CNS
U251 CNS = tested on: U251 CNS
DU-145 prostate = tested on: DU-145 prostate
RPMI-8226 leukemia = tested on: RPMI-8226 leukemia
K-562 leukemia = tested on: K-562 leukemia
BT-549 breast = tested on: BT-549 breast

| Structure (SMILES) | TGI (SW-620 colon) [µM] | TGI (OVCAR-8 ovarian) [µM] | TGI (KM12 colon) [µM] | TGI (SF-295 CNS) [µM] | TGI (HT29 colon) [µM] | TGI (SF-539 CNS) [µM] | TGI (T-47D breast) [µM] | TGI (SN12C renal) [µM] | TGI (MALME-3M melanoma) [µM] | TGI (OVCAR-3 ovarian) [µM] | TGI (RXF 393 renal) [µM] | TGI (UACC-257 melanoma) [µM] | TGI (SF-268 CNS) [µM] | TGI (SK-MEL-28 melanoma) [µM] | TGI (SNB-19 CNS) [µM] | TGI (U251 CNS) [µM] | TGI (DU-145 prostate) [µM] | TGI (RPMI-8226 leukemia) [µM] | TGI (K-562 leukemia) [µM] | TGI (BT-549 breast) [µM] |
| --- | --- | --- | --- | --- | --- | --- | --- | --- | --- | --- | --- | --- | --- | --- | --- | --- | --- | --- | --- | --- |
| Cc1cc(-c2cccc3ccccc23)c(C#N)c(=S)n1C1OC(CO)C(O)C(O)C1O (centres undefined) | > 100 | > 100 | > 100 | > 100 | > 100 | > 100 | > 100 | > 100 | > 100 | > 100 | > 100 | > 100 | – | – | – | – | – | – | – | – |
| CCCCCC(C/C=N/N(C)C)C(O)(C(F)(F)F)C(F)(F)F (centres undefined) | > 100 | > 100 | 81.6 | > 100 | > 100 | 82.7 | > 100 | > 100 | 67.1 | 66.1 | 76.3 | – | > 100 | > 100 | > 100 | > 100 | > 100 | 60.4 | > 100 | – |
| C[C@@]1(O)C[C@@H](N2C(=O)O[C@@H](c3ccccc3)[C@H]2c2ccccc2)[C@@H]1COCc1ccccc1 | > 100 | 54 | 74.3 | 41.3 | 50.6 | 38.4 | – | 38.5 | 46.8 | 46.1 | 80.2 | 36.7 | 48.1 | 44.5 | > 100 | 32.9 | > 100 | 68.8 | > 100 | 51.2 |
| CC(C)=CC1C[C@H](C2CC=C3C2(C)CCC2[C@@]3(C)C(=O)CC3[C@]2(C)C=CC(=O)[C@]3(C)CO)CO1 (some centres undefined) | > 31.7 | > 24.4 | 19.9 | 32.1 | 18.2 | 11.9 | – | 63.2 | 16.8 | 13.2 | 23.2 | 30.8 | 23.1 | 19 | 42.9 | 21.7 | – | 15.3 | 31.3 | – |
| O=C1/C(=c2\s/c(=C\c3ccccc3)c(=O)n2-c2ccccc2)SC(=S)N1c1ccccc1 | > 100 | > 100 | > 100 | > 100 | > 100 | 55.6 | – | > 100 | > 100 | 88.8 | > 100 | > 100 | > 100 | > 100 | > 100 | 81.1 | > 100 | > 100 | > 100 | – |
| O=C(O)Cc1c(-c2ccc([N+](=O)[O-])cc2)c(=O)oc2cc(O)ccc12 | > 100 | 74.1 | 93.5 | 49.9 | > 100 | 82 | – | > 100 | 59.9 | 46.2 | > 100 | 53.5 | > 100 | > 100 | > 100 | 53.5 | > 100 | 61.7 | > 100 | 59.1 |
| NCCCOc1ccc([N+](=O)[O-])cc1Cl | > 100 | > 100 | > 100 | > 100 | > 100 | > 100 | – | – | > 100 | > 100 | – | > 100 | > 100 | > 100 | > 100 | > 100 | – | > 100 | > 100 | – |
| O=c1[nH]nc(-c2ccccc2)n1Nc1ccccc1 | > 100 | > 100 | > 100 | > 100 | > 100 | > 100 | > 100 | > 100 | > 100 | > 100 | > 100 | > 100 | > 100 | > 100 | > 100 | > 100 | > 100 | > 100 | > 100 | – |
| CCc1cc2c(c3c1CCC3=O)CC1(Cc3ccc(C)cc3C1)C2 (centres undefined) | – | > 100 | > 100 | > 100 | 46.9 | > 100 | > 100 | > 100 | > 100 | > 100 | > 100 | > 100 | – | – | – | > 100 | – | 94.8 | > 100 | – |
| Cc1c2ccncc2c(C)c2c1[nH]c1ccc(OC(C)C)cc12 | 1.89 | 2.28 | 2.86 | 2.73 | 2.64 | 3.36 | – | 2.45 | 3.16 | 2.98 | 2.76 | 3.3 | 3.07 | 3.21 | 3.12 | 2.94 | – | 5.12 | 4.4 | – |
| CN(C)c1ccc(/C=C/C(=O)CC(=O)/C=C/c2ccc(N(C)C)cc2)cc1 | > 100 | > 100 | > 100 | > 100 | > 100 | > 100 | > 100 | > 100 | > 100 | > 100 | > 100 | – | > 100 | > 100 | > 100 | > 100 | > 100 | > 100 | > 100 | – |
| COC(=O)C1=C(C)C(=O)[C@]23C(CCCC[C@H]12)C(=O)[C@H](C(=O)OC)C3C (some centres undefined) | > 100 | > 100 | > 100 | > 100 | > 100 | > 100 | > 100 | > 100 | > 100 | > 100 | – | > 100 | > 100 | > 100 | > 100 | > 100 | > 100 | – | > 100 | > 100 |
| CC1=NN(c2cccc(Cl)c2)C(=N/c2nc3ccccc3s2)/C1=C\c1ccc(Cl)cc1 | 42.3 | 39.8 | – | 61.6 | 34 | 36.4 | > 100 | – | – | 52.5 | 42.1 | 51.2 | 38.6 | 45.2 | – | 28.7 | > 100 | > 100 | > 100 | – |
| O=c1cc(-c2ccccc2)c2ccccc2[nH]1 | > 100 | > 100 | > 100 | > 100 | > 100 | > 100 | – | > 100 | 90.9 | – | > 100 | > 100 | > 100 | > 100 | – | > 100 | – | > 100 | > 100 | – |
| C/C(N=NS(=O)(=O)c1ccccc1)=C1\C=CC=CN1O | > 100 | > 100 | > 100 | > 100 | > 100 | > 100 | – | > 100 | – | > 100 | – | > 100 | > 100 | > 100 | > 100 | > 100 | – | > 100 | – | – |
| N#CC(C#N)=C1c2ccccc2C(=NN)c2ccccc21 | > 100 | > 100 | > 100 | > 100 | > 100 | > 100 | – | > 100 | > 100 | > 100 | > 100 | > 100 | > 100 | > 100 | > 100 | > 100 | > 100 | > 100 | > 100 | > 100 |
| CC(C)Oc1c(O)c2c3c(oc(=O)n3C=CC2c2ccccc2)c1OC(C)C (centres undefined) | 82.8 | > 100 | 89.6 | 49.1 | 77.4 | 43.1 | > 100 | > 100 | – | 80.5 | – | > 100 | – | 54.5 | > 100 | 45.2 | > 100 | – | – | – |
| [N-]=[N+]=NC(CCl)c1cn([C@H]2C[C@H](O)[C@@H](CO)O2)c(=O)[nH]c1=O (some centres undefined) | > 100 | > 100 | > 100 | > 100 | > 100 | > 100 | – | > 100 | > 100 | > 100 | > 100 | – | – | > 100 | > 100 | > 100 | – | > 100 | > 100 | – |
| BrC1=CCC23CC=C(Br)[C@H]4CC2(COC3)C[C@@H]1O4 (some centres undefined) | > 100 | > 100 | > 100 | > 100 | – | > 100 | – | > 100 | > 100 | > 100 | 93.5 | – | 30.9 | 62.1 | > 100 | > 100 | – | > 100 | 89 | – |
| C=C(CCOC)CCC1CCCCC(=C)[C@H]1OC(C)=O (some centres undefined) | > 100 | > 100 | > 100 | > 100 | > 100 | > 100 | > 100 | > 100 | – | > 100 | – | > 100 | > 100 | > 100 | > 100 | > 100 | > 100 | > 100 | > 100 | – |
| CS(=O)(=O)OC1CCC2(C#N)CCC1C2=O (centres undefined) | – | > 100 | > 100 | > 100 | > 100 | > 100 | – | > 100 | > 100 | > 100 | > 100 | > 100 | > 100 | > 100 | > 100 | > 100 | – | 44.4 | > 100 | – |
| C/C(=C(/C)c1ccc(O)cc1)c1ccc(O)cc1 | > 100 | > 100 | > 100 | – | > 100 | > 100 | – | > 100 | > 100 | > 100 | > 100 | > 100 | > 100 | – | > 100 | > 100 | > 100 | 71.6 | > 100 | > 100 |
| O=C(O)c1n[nH][nH]c1=S | > 100 | > 100 | > 100 | > 100 | > 100 | > 100 | > 100 | > 100 | > 100 | > 100 | > 100 | > 100 | > 100 | > 100 | > 100 | > 100 | > 100 | > 100 | > 100 | – |
| CN1C2=C(CC3=C1CC(C)(C)CC3=O)C(=O)CC(C)(C)C2 | > 100 | > 100 | > 100 | – | > 100 | > 100 | – | > 100 | – | > 100 | – | – | > 100 | > 100 | > 100 | > 100 | – | > 100 | > 100 | > 100 |
| CC12O[C@]3([C@H](C(=O)N4CCOC43C)[C@H]1Cl)[C@H]1O[C@H]12 (some centres undefined) | > 100 | > 100 | > 100 | > 100 | > 100 | > 100 | > 100 | > 100 | – | > 100 | – | > 100 | > 100 | > 100 | > 100 | > 100 | > 100 | > 100 | > 100 | > 100 |
| COC(=O)/C=C\COCC1C2CCC(=O)C21 (centres undefined) | > 25 | > 25 | > 25 | > 25 | > 25 | 19.4 | – | > 25 | 13.3 | > 25 | > 25 | > 25 | > 25 | > 25 | > 25 | > 25 | > 25 | > 25 | > 25 | > 25 |
| CN1CC[C@]23c4c5ccc(O)c4O[C@H]2C(O)CC[C@@]3(O)[C@H]1C5 (some centres undefined) | > 100 | > 100 | > 100 | > 100 | > 100 | > 100 | > 100 | > 100 | > 100 | > 100 | – | > 100 | > 100 | > 100 | > 100 | > 100 | > 100 | > 100 | – | > 100 |
